Laboratory results taken from patent publication US8809333B2, “Imidazole, pyrazole, and triazole derivatives useful as antibacterial agents” (Pfizer Inc., priority 2011, dated 2014).
pIC50: −log10 of the molar value. Converted amounts (≈) assume the structure as drawn. Like-named read-outs stand apart in the source and are kept apart here.

Key:
[1] = tested on: Escherichia coli EC-1: VOGEL, mouse virulent; assay: MIC determination (CLSI), EC-1; assay type: cell-based; conditions: Escherichia coli, read-out: EC-1 (MIC)
Procedure: (§1) The in vitro antibacterial activity of compounds described in the Examples was evaluated by minimum inhibitory concentration (MIC) testing according to Clinical and Laboratory Standards Institute (CLSI) Guidelines. See: Clinical and Laboratory Standards Institute. Methods for Dilution Antimicrobial Susceptibility Tests for Bacteria that Grow Aerobically; Approved Standard-Eighth Edition. CLSI document M7-A8 [ISBN 1-56238-689-1]. Clinical and Laboratory Standards Institute, 940 West Valley Road, Suite 1400, Wayne, Pa. 19087-1898 USA, 2006; also Clinical and Laboratory Standards Institute. Performance Standards for Antimicrobial Susceptibility Testing; Twentieth Informational Supplement. CLSI document M100-S20 [ISBN1-56238-716-2]. Clinical and Laboratory Standards Institute.
(§2) The MIC determination is a standard laboratory method for evaluating the antibacterial activity of a compound. The MIC represents the lowest drug concentration that inhibits visible growth of bacteria following overnight incubation. […] Typically, the drug concentration range is broken down into 2-fold increments (e.g. 0.06 μg/mL, 0.12 μg/mL. 0.25 μg/mL, 0.50 μg/mL, 1.0 μg/mL, etc.) and the various drug concentrations are all individually incubated overnight with approximately the same number of bacteria. The MIC is then determined by visually inspecting the drug effect at each concentration, and identifying the lowest drug concentration that has inhibited bacterial growth as compared to the drug free control. Typically, bacteria continue to grow at drug concentrations lower than the MIC and don't grow at concentrations at and above the MIC.
(§3) The MIC values described in Tables 2 and 3 below were derived from assays wherein each test compound was evaluated in duplicate. In cases where the duplicate values varied by 0-2-fold, the lower of the two values was reported below. Generally speaking, if the duplicate values varied by more than 2-fold, the assay was considered non-valid and was repeated until the variation between duplicate runs was ≦2-fold. In line with the CLSI guidelines referred to above, both control organisms and reference compounds were utilized in each MIC assay to provide proper quality control. MIC values generated with these control organisms and reference compounds were required to fall within a defined range for the assay to be considered valid and be included herein. Those skilled in the art will recognize that MIC values can and do vary from experiment to experiment. Generally speaking, it should be recognized that MIC values often vary +/−2-fold from experiment to experiment. While a single MIC is reported for each compound and each microorganism, the reader should not conclude that each compound was only tested once. Several of the compounds were subjected to multiple tests. The data reported in Tables 2 and 3 is reflective of the compounds relative activity and different MICs may have been generated on these occasions in line with the guidelines described above.
(§4) The following bacterial strains were used in these MIC determinations:
(2) Escherichia coli EC-1: VOGEL, mouse virulent labeled as EC-1 in Table 5;

[2] = tested on: Acinetobacter baumannii/haemolyticus: Multidrug-resistant clinical isolate (AB-3167); assay: MIC determination (CLSI), AB-3167; assay type: cell-based; conditions: read-out: AB-3167 (MIC)
Procedure: as §1, §2, §3, §4
(1) Acinetobacter baumannii/haemolyticus: Multidrug-resistant clinical isolate labeled as AB-3167 in Table 5;

[3] = tested on: Pseudomonas aeruginosa UI-18: Wild-type (PA-7); assay: MIC determination (CLSI), PA-7; assay type: cell-based; conditions: read-out: PA-7 (MIC)
Procedure: as §1, §2, §3, §4
(4) Pseudomonas aeruginosa UI-18: Wild-type, labeled as PA-7 in Table 5;

[4] = tested on: Klebsiella pneumoniae: Ciprofloxacin-resistant isolate, expresses ESBL, clinical isolate (KP-3700); assay: MIC determination (CLSI), KP-3700; assay type: cell-based; conditions: overnight incubation, lower of duplicate values
Procedure: as §1, §2, §3, §4
(3) Klebsiella pneumoniae: Ciprofloxacin-resistant isolate, expresses extended-spectrum beta-lactamases (ESBL), clinical isolate, labeled as KP-3700 in Table 5.

[5] = biological target: T1, Pseudomonas aeruginosa LpxC enzyme (Pseudomonas aeruginosa, UniProt P47205); assay: IC50 assay, LpxC enzyme from P. aeruginosa (BioTrove RapidFire mass spectrometry); assay type: biochemical
T1 construct: made in house; host or cells: E. coli
T1 sequence (P47205 1-303): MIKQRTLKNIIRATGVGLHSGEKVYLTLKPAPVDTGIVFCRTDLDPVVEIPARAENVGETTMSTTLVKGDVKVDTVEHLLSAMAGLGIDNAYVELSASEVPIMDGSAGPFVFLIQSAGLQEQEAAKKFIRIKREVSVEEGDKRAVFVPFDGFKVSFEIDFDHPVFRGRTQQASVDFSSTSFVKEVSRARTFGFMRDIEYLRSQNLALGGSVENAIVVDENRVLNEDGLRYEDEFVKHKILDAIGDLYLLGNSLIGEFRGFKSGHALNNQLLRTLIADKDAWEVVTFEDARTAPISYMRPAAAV
Procedure: In order to assess the compounds biological activity, selected in-vitro assays were conducted on selected compounds of Formula I. One of the assays measured the compounds ability to disrupt the synthesis of lipopolysaccharide, LPS, which is a component of the outer membrane of Gram-negative bacteria. Disruption of this synthesis is lethal to the bacteria. The assay determined the compound's ability to inhibit LpxC, which is the first enzyme in the biosynthetic pathway for LPS (measured as IC50). Additionally, MICs (minimal inhibitory concentrations) were determined for several bacteria. The specific protocols are described below:
A) IC50 Assay, LpxC Enzyme from P. Aeruginosa Labeled as PA LpxC Enzyme IC50):
At the end of 1 hour, 5 ul of 1 N HCl was added to stop the enzyme reaction, the plates were centrifuged, and then processed with the BioTrove Rapidfire HTMS Mass Spectrometry System. A no-enzyme control was used in calculating the IC50 values from the percent conversion values.

[6] = Acinetobacter baumannii/haemolyticus multidrug-resistant clinical isolate, overnight incubation, lower of duplicate values
[7] = Pseudomonas aeruginosa UI-18 wild-type, overnight incubation, lower of duplicate values
[8] = P. aeruginosa LpxC enzyme 0.1 nM, 25° C., 1 hour, pH 8.0, read-out: PA: IC50

Compound | MIC [1] | MIC [2, 6] | MIC [3, 7] | KP-3700 (MIC) [4] | pIC50 [5] | MIC ([2]; Acinetobacter baumannii) | MIC ([3]; Pseudomonas aeruginosa) | pIC50 [5, 8]
COc1ccc(-c2cn(CC[C@](C)(C(=O)NO)S(C)(=O)=O)nn2)c(Cl)c1 [Example 16, (2R)-4-[4-(2-chloro-4-methoxyphenyl)-1H-1,2,3-triazol-1-yl]-N-hydroxy-2-methyl-2-(methylsulfonyl)butanamide] | 8 µg/mL (≈ 19.9 µM) | > 64 µg/mL | 8 µg/mL (≈ 19.9 µM) | 32 µg/mL | 8.33 | – | – | –
C[C@@](CCn1cc(-c2cccc(F)c2F)nn1)(C(=O)NO)S(C)(=O)=O [Example 17, (2R)-4-[4-(2,3-difluorophenyl)-1H-1,2,3-triazol-1-yl]-N-hydroxy-2-methyl-2-(methylsulfonyl)butanamide] | 32 µg/mL (≈ 85.5 µM) | > 64 µg/mL | 4 µg/mL (≈ 10.7 µM) | 64 µg/mL | 8.09 | – | – | –
C[C@@](CCn1cc(-c2cccc(Cl)c2Cl)nn1)(C(=O)NO)S(C)(=O)=O [Example 19, (2R)-4-[4-(2,3-dichlorophenyl)-1H-1,2,3-triazol-1-yl]-N-hydroxy-2-methyl-2-(methylsulfonyl)butanamide] | 8 µg/mL (≈ 19.6 µM) | – | – | 16 µg/mL | 8.71 | > 64 µg/mL | 4 µg/mL (≈ 9.82 µM) | –
C[C@@](CCn1cc(-c2ccc(F)c(F)c2)nn1)(C(=O)NO)S(C)(=O)=O [Example 20, (2R)-4-[4-(3,4-difluorophenyl)-1H-1,2,3-triazol-1-yl]-N-hydroxy-2-methyl-2-(methylsulfonyl)butanamide] | 32 µg/mL (≈ 85.5 µM) | > 64 µg/mL | 4 µg/mL (≈ 10.7 µM) | >64.0 µg/mL | 8.73 | – | – | –
C[C@@](CCn1cc(-c2ccc(Cl)c(Cl)c2)nn1)(C(=O)NO)S(C)(=O)=O [Example 21, (2R)-4-[4-(3,4-dichlorophenyl)-1H-1,2,3-triazol-1-yl]-N-hydroxy-2-methyl-2-(methylsulfonyl)butanamide] | 16 µg/mL (≈ 39.3 µM) | – | – | 32 µg/mL | 8.78 | > 64 µg/mL | 2 µg/mL (≈ 4.91 µM) | –
C[C@@](CCn1cc(-c2ccc(Cl)c(F)c2)nn1)(C(=O)NO)S(C)(=O)=O [Example 23, (2R)-4-[4-(4-chloro-3-fluorophenyl)-1H-1,2,3-triazol-1-yl]-N-hydroxy-2-methyl-2-(methylsulfonyl)butanamide] | 8 µg/mL (≈ 20.5 µM) | > 64 µg/mL | 2 µg/mL (≈ 5.12 µM) | 64 µg/mL | 9.04 | – | – | –
C[C@@](CCn1cc(-c2ccc(Cl)cc2F)nn1)(C(=O)NO)S(C)(=O)=O [Example 24, (2R)-4-[4-(4-chloro-2-fluorophenyl)-1H-1,2,3-triazol-1-yl]-N-hydroxy-2-methyl-2-(methylsulfonyl)butanamide] | 2 µg/mL (≈ 5.12 µM) | > 64 µg/mL | 1 µg/mL (≈ 2.56 µM) | 4 µg/mL | 9.18 | – | – | –
CC(CCn1cc(-c2ccc(Cl)cc2)nn1)(C(=O)NO)S(C)(=O)=O (centres unmarked) [Example 26, 4-[4-(4-chlorophenyl)-1H-1,2,3-triazol-1-yl]-N-hydroxy-2-methyl-2-(methylsulfonyl)butanamide] | 32 µg/mL (≈ 85.8 µM) | > 64 µg/mL | 4 µg/mL (≈ 10.7 µM) | 32 µg/mL | – | – | – | 8.54
CC(CCn1cc(CSc2cccc(Cl)c2)nn1)(C(=O)NO)S(C)(=O)=O (centres unmarked) [Example 27, 4-(4-{[(3-chlorophenyl)sulfanyl]methyl}-1H-1,2,3-triazol-1-yl)-N-hydroxy-2-methyl-2-(methylsulfonyl)butanamide] | > 64 µg/mL | > 64 µg/mL | 64 µg/mL (≈ 153 µM) | >64.0 µg/mL | – | – | – | 7.91
CC(C)(C)c1ccccc1SCc1cn(CCC(C)(C(=O)NO)S(C)(=O)=O)nn1 (centres unmarked) [Example 28, 4-(4-{[(2-t-butylphenyl)sulfanyl]methyl}-1H-1,2,3-triazol-1-yl)-N-hydroxy-2-methyl-2-(methylsulfonyl)butanamide] | > 64 µg/mL | > 64 µg/mL | > 64 µg/mL | >64.0 µg/mL | – | – | – | 6.76
CC(CCn1cc(CSc2ccc(Cl)cc2)nn1)(C(=O)NO)S(C)(=O)=O (centres unmarked) [Example 29, 4-(4-{[(4-chlorophenyl)sulfanyl]methyl}-1H-1,2,3-triazol-1-yl)-N-hydroxy-2-methyl-2-(methylsulfonyl)butanamide] | > 64 µg/mL | > 64 µg/mL | 32 µg/mL (≈ 76.4 µM) | >64.0 µg/mL | – | – | – | 8.05
CC(CCn1cc(COc2ccc3ccccc3c2)nn1)(C(=O)NO)S(C)(=O)=O (centres unmarked) [Example 30, N-hydroxy-2-methyl-2-(methylsulfonyl)-4-{4-[(naphthalen-2-yloxy)methyl]-1H-1,2,3-triazol-1-yl}butanamide] | > 64 µg/mL | > 64 µg/mL | 32 µg/mL (≈ 76.5 µM) | >64.0 µg/mL | – | – | – | 8.42
CC(C)c1ccccc1SCc1cn(CCC(C)(C(=O)NO)S(C)(=O)=O)nn1 (centres unmarked) [Example 31, N-hydroxy-2-methyl-2-(methylsulfonyl)-4-[4-({[2-(propan-2-yl)phenyl]sulfanyl}methyl)-1H-1,2,3-triazol-1-yl]butanamide] | > 64 µg/mL | > 64 µg/mL | > 64 µg/mL | >64.0 µg/mL | – | – | – | 6.52
CCc1ccccc1SCc1cn(CCC(C)(C(=O)NO)S(C)(=O)=O)nn1 (centres unmarked) [Example 32, 4-(4-{[(2-ethylphenyl)sulfanyl]methyl}-1H-1,2,3-triazol-1-yl)-N-hydroxy-2-methyl-2-(methylsulfonyl)butanamide] | > 64 µg/mL | > 64 µg/mL | > 64 µg/mL | >64.0 µg/mL | – | – | – | 7.29
CC(CCn1cc(COc2ccc(C(F)(F)F)cc2)nn1)(C(=O)NO)S(C)(=O)=O (centres unmarked) [Example 33, N-hydroxy-2-methyl-2-(methylsulfonyl)-4-(4-{[4-(trifluoromethyl)phenoxy]methyl}-1H-1,2,3-triazol-1-yl)butanamide] | 64 µg/mL (≈ 147 µM) | > 64 µg/mL | 32 µg/mL (≈ 73.3 µM) | >64.0 µg/mL | – | – | – | 8.02
CC(CCn1cc(COc2cccc3ccccc23)nn1)(C(=O)NO)S(C)(=O)=O (centres unmarked) [Example 34, N-hydroxy-2-methyl-2-(methylsulfonyl)-4-{4-[(naphthalen-1-yloxy)methyl]-1H-1,2,3-triazol-1-yl}butanamide] | > 64 µg/mL | > 64 µg/mL | > 64 µg/mL | >64.0 µg/mL | – | – | – | 7.58
